Experimental findings from patent publication US10030020B2, “Spirocycle compounds and methods of making and using same” (Abide Therapeutics, Inc., priority 2016, dated 2018) are described below.

SMILES strings stand for the structures.

Test [1] has as its target MAGL (Homo sapiens (Human), UniProt Q99685). Description: In vitro competitive activity-based protein profiling (human prefrontal cortex or cell membrane fractions; hMAGL expressed in HEK293T cells). The class given is biochemical. The settings on record: human proteome, competitive ABPP. On the procedure: In Vitro Competitive Activity-Based Protein Profiling (Human).
Proteomes (human prefrontal cortex or cell membrane fractions) (50 μL, 1.0-2.0 mg/mL total protein concentration) were preincubated with varying concentrations of inhibitors at 37° C. After 30 min, FP—Rh or JW912 (1.0 μL, 50 μM in DMSO) was added and the mixture was incubated for another 30 min at room temperature. Reactions were quenched with SDS loading buffer (15 μL-4×) and run on SDS-PAGE.
Recombinant Expression of Human MAGL in HEK293T Cells.
Cell lysates were diluted with mock proteomes for use in competitive ABPP experiments.

Test [2] deals with T1, ABHD6 (Mus musculus (Mouse), UniProt Q8R2Y0). Description: In vitro competitive activity-based protein profiling (mouse brain membrane fraction or cell lysates), ABHD6 band. Format: biochemical. The following applies: mouse proteome; for inhibition at 1 µM: read-out: ABHD6 % Inh 1 μM (mouse); for IC50: competitive ABPP. Summed up:
(§1)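 Mouse proteome samples (brain membrane fraction or cell lysate, 1.0 mg/mL protein) were pretreated with varying inhibitor concentrations and subsequently probed with fluorophosphonate-rhodamine, each step lasting 30 min at 37° C. Labelled proteins were separated by SDS-PAGE, and band fluorescence was imaged and quantified.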

The target in test [3] is T2, FAAH (Mus musculus (Mouse), UniProt O08914). As to the kind of experiment: In vitro competitive activity-based protein profiling (mouse brain membrane fraction or cell lysates), FAAH band. The class given is biochemical. The settings on record: mouse proteome; for inhibition at 1 µM: read-out: FAAH % Inh 1 μM (mouse); for IC50: competitive ABPP. The method in brief: as §1
T2 sequence (O08914 whole entry): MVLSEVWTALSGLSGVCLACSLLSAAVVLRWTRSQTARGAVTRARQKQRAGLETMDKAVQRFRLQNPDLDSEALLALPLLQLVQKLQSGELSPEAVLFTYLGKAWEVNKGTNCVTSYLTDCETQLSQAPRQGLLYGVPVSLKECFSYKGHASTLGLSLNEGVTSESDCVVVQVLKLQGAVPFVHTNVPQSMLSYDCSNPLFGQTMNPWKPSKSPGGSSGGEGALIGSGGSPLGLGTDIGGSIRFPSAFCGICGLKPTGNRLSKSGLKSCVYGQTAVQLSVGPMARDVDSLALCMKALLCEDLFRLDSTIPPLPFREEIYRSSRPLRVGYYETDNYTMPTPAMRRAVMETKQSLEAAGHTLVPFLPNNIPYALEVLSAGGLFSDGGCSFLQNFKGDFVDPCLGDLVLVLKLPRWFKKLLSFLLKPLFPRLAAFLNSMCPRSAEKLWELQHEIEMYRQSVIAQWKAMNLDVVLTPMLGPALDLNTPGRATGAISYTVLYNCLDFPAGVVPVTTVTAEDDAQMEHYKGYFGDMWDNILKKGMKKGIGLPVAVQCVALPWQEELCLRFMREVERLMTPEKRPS

In test [4] the target is T3, MAGL (Mus musculus (Mouse), UniProt O35678). As to the kind of experiment: In vitro competitive activity-based protein profiling (mouse brain membrane fraction or cell lysates), MAGL band. Format: biochemical. The settings on record: mouse proteome; for inhibition at 1 µM: read-out: MAGL % Inh 1 μM (mouse); for IC50: competitive ABPP. As to the method:
In Vitro Competitive Activity-Based Protein Profiling.
Proteomes (mouse brain membrane fraction or cell lysates) (50 μL, 1.0 mg/mL total protein concentration) were preincubated with varying concentrations of inhibitors at 37° C. After 30 min, FP—Rh (1.0 μL, 50 μM in DMSO) was added and the mixture was incubated for another 30 min at 37° C. Reactions were quenched with SDS loading buffer (50 μL-4×) and run on SDS-PAGE.

The target in test [5] is T3, MAGL. As to the kind of experiment: Mouse brain proteomes from inhibitor treated mice (oral gavage, sacrificed 4 h after administration, ABPP analysis). Format: in vivo, mouse (C57Bl/6J). The following applies: 5 mg/kg oral gavage. The method in brief: (§2)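 Compounds were given by oral gavage to wild-type C57Bl/6J mice in a vehicle such as PEG400/Ethanol/PBS (7/2/1). Animals were sacrificed 4 h after dosing, and brain proteomes were prepared and analyzed by established ABPP methods. Values are % inhibition at 5 mg/kg.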

In test [6] the target is T2, FAAH. Description: Mouse brain proteomes from inhibitor treated mice (oral gavage, sacrificed 4 h after administration, ABPP analysis), FAAH. The following applies: 5 mg/kg oral gavage. Format: in vivo, mouse (C57Bl/6J). The method in brief: as §2
Test [7] deals with T1, ABHD6. Description: Mouse brain proteomes from inhibitor treated mice (oral gavage, sacrificed 4 h after administration, ABPP analysis), ABHD6. Format: in vivo, mouse (C57Bl/6J). The settings on record: 5 mg/kg oral gavage. Summed up:
as §2

T1 sequence (Q8R2Y0 whole entry): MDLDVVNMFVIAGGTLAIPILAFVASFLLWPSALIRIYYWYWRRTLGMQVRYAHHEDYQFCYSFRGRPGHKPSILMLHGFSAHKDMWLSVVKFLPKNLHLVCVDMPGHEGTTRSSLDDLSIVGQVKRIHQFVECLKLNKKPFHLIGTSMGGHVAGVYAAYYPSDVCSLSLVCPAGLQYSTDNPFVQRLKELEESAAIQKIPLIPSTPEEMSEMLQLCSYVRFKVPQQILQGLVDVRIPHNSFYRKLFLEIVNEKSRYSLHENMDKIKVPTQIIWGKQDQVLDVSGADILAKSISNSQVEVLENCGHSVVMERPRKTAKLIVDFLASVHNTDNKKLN
T3 sequence (O35678 whole entry): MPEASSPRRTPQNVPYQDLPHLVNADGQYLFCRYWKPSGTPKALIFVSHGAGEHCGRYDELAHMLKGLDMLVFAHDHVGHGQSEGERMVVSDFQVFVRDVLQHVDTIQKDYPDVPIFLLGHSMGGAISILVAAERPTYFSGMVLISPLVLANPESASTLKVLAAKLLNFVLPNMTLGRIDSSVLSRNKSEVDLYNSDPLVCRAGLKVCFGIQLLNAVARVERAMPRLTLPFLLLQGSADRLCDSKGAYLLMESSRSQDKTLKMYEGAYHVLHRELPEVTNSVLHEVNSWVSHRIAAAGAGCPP
MAGL (Homo sapiens (Human), UniProt Q99685), sequence (Q99685 whole entry): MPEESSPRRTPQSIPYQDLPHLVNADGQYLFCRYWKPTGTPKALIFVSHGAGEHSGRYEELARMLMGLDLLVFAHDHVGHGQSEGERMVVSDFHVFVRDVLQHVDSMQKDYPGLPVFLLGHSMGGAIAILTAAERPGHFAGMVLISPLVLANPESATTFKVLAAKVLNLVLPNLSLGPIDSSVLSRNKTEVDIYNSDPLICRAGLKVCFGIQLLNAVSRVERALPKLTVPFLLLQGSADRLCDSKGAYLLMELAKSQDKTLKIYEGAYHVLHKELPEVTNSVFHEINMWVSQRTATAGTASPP

On to `COC(=O)C1CCN(c2cc(C(F)(F)F)ccc2CN2CC3(CCN(C(=O)OC(C(F)(F)F)C(F)(F)F)CC3)CC2(C)C)CC1` [Example 53, 1,1,1,3,3,3-Hexafluoropropan-2-yl 2-(2-(4-(methoxycarbonyl)piperidin-1-yl)-4-(trifluoromethyl)benzyl)-3,3-dimethyl-2,8-diazaspiro[4.5]decane-8-carboxylate], for which the IC50 was less than 100 nM in test [1], greater than 1000 nM in test [2], greater than 1000 nM in test [3] and 100 to 1000 nM in test [4]. The inhibition at 1 µM in test [2] was less than 25%; in test [3], less than 25%; in test [4] it was greater than 75%.

As to `O=C(OC(C(F)(F)F)C(F)(F)F)N1CCC2(CCCN2Cc2cc(Oc3cccnc3)cc(C(F)(F)F)c2)CC1` [Example 174, 1,1,1,3,3,3-Hexafluoropropan-2-yl 1-(3-(pyridin-3-yloxy)-5-(trifluoromethyl)benzyl)-1,8-diazaspiro[4.5]decane-8-carboxylate], in test [5], the “MAGL % Inh 5 mg/kg (mouse)” value is listed as “## (## is equal to or greater than 25% but less than 75%)”. Moreover, in test [6], the “FAAH % Inh 5 mg/kg (mouse)” value is given as “# (# is <25%)”. Besides, the inhibition at 1 µM in test [2] was 25 to 75%; in test [3] it was less than 25%; in test [4], greater than 75%. Also, the half-maximal inhibitory concentration (IC50) was greater than 1000 nM in test [2], greater than 1000 nM in test [3] and less than 100 nM in test [4]. In addition, in test [7], the “ABHD6 % Inh 5 mg/kg (mouse)” value is “# (# is <25%)”.

For the compound `O=C(OC(C(F)(F)F)C(F)(F)F)N1CCC2(CCCN2Cc2cc(OC3CCS(=O)(=O)CC3)cc(C(F)(F)F)c2)CC1` [Example 176, 1,1,1,3,3,3-Hexafluoropropan-2-yl 1-(3-((1,1-dioxidotetrahydro-2H-thiopyran-4-yl)oxy)-5-(trifluoromethyl)benzyl)-1,8-diazaspiro[4.5]decane-8-carboxylate], the “MAGL % Inh 5 mg/kg (mouse)” value in test [5] was “## (## is equal to or greater than 25% but less than 75%)”. Besides, in test [6], the “FAAH % Inh 5 mg/kg (mouse)” value is listed as “# (# is <25%)”. For the same compound, the inhibition at 1 µM in test [2] is less than 25%; in test [3], less than 25%; in test [4], greater than 75%. The IC50 in test [2] is greater than 1000 nM; in test [3] it was greater than 1000 nM; in test [4] it was less than 100 nM. For the same compound, the “ABHD6 % Inh 5 mg/kg (mouse)” value in test [7] is on record as “# (# is <25%)”.

Regarding `Cc1cc(CN2CCCC23CCN(C(=O)OC(C(F)(F)F)C(F)(F)F)CC3)ccc1C(F)(F)F` [Example 177, 1,1,1,3,3,3-Hexafluoropropan-2-yl 1-(3-methyl-4-(trifluoromethyl)benzyl)-1,8-diazaspiro[4.5]decane-8-carboxylate], the “MAGL % Inh 5 mg/kg (mouse)” value in test [5] is “### (### is ≥75%)”. The “FAAH % Inh 5 mg/kg (mouse)” value in test [6] is recorded as “# (# is <25%)”. Further, the inhibition at 1 µM is 25 to 75% in test [2], less than 25% in test [3] and greater than 75% in test [4]. The IC50 was greater than 1000 nM in test [2], greater than 1000 nM in test [3] and 100 to 1000 nM in test [4]. For the same compound, the “ABHD6 % Inh 5 mg/kg (mouse)” value in test [7] is “# (# is <25%)”.

As for `NC(=O)c1cc(CN2CCCC23CCN(C(=O)OC(C(F)(F)F)C(F)(F)F)CC3)ccc1C(F)(F)F` [Example 178, 1,1,1,3,3,3-hexafluoropropan-2-yl 1-(3-carbamoyl-4-(trifluoromethyl)benzyl)-1,8-diazaspiro[4.5]decane-8-carboxylate], the IC50 in test [1] was less than 100 nM; in test [2], greater than 1000 nM; in test [3] it was greater than 1000 nM; in test [4], less than 100 nM. In addition, the results for the inhibition at 1 µM in test [2], in test [3] and in test [4] were 25 to 75%, less than 25% and greater than 75%, respectively.

With `Cc1ccc(CN2CCCC23CCN(C(=O)OC(C(F)(F)F)C(F)(F)F)CC3)cc1C(F)(F)F` [Example 180, 1,1,1,3,3,3-Hexafluoropropan-2-yl 1-(4-methyl-3-(trifluoromethyl)benzyl)-1,8-diazaspiro[4.5]decane-8-carboxylate], the “MAGL % Inh 5 mg/kg (mouse)” value in test [5] is listed as “### (### is ≥75%)”. Besides, the “FAAH % Inh 5 mg/kg (mouse)” value in test [6] was “## (## is equal to or greater than 25% but less than 75%)”. The inhibition at 1 µM in test [2] is less than 25%; in test [3], less than 25%; in test [4] it was greater than 75%. Also, the IC50 in test [2] is greater than 1000 nM; in test [3], greater than 1000 nM; in test [4] it was less than 100 nM. Further, the “ABHD6 % Inh 5 mg/kg (mouse)” value in test [7] is on record as “## (## is equal to or greater than 25% but less than 75%)”.

Turning to `O=C(OC(C(F)(F)F)C(F)(F)F)N1CCC2(CCCN2Cc2ccc(C(F)(F)F)c(Cl)c2)CC1` [Example 183, 1,1,1,3,3,3-Hexafluoropropan-2-yl 1-(3-chloro-4-(trifluoromethyl)benzyl)-1,8-diazaspiro[4.5]decane-8-carboxylate], the “MAGL % Inh 5 mg/kg (mouse)” value in test [5] is reported as “### (### is ≥75%)”. Further, in test [6], the “FAAH % Inh 5 mg/kg (mouse)” value is given as “# (# is <25%)”. Moreover, the values for the inhibition at 1 µM in test [2], in test [3] and in test [4] were 25 to 75%, less than 25% and greater than 75%, respectively. Also, the IC50 was greater than 1000 nM in test [2], greater than 1000 nM in test [3] and less than 100 nM in test [4]. Moreover, in test [7], the “ABHD6 % Inh 5 mg/kg (mouse)” value is recorded as “# (# is <25%)”.

In the case of `O=C(OC(C(F)(F)F)C(F)(F)F)N1CCC2(CCCN2Cc2ccc(Cl)c(C(F)(F)F)c2)CC1` [Example 184, 1,1,1,3,3,3-Hexafluoropropan-2-yl 1-(4-chloro-3-(trifluoromethyl)benzyl)-1,8-diazaspiro[4.5]decane-8-carboxylate], in test [5], the “MAGL % Inh 5 mg/kg (mouse)” value is reported as “### (### is ≥75%)”. The “FAAH % Inh 5 mg/kg (mouse)” value in test [6] is given as “# (# is <25%)”. In addition, the inhibition at 1 µM in test [2] was less than 25%; in test [3] it was less than 25%; in test [4] it was greater than 75%. The values for the IC50 in test [2], in test [3] and in test [4] were greater than 1000 nM, greater than 1000 nM and less than 100 nM, respectively. For the same compound, the “ABHD6 % Inh 5 mg/kg (mouse)” value in test [7] is on record as “# (# is <25%)”.

Consider `CN1CCN(c2c(Cl)cccc2CN2CC3(CCN(C(=O)OC(C(F)(F)F)C(F)(F)F)CC3)CC2(C)C)CC1` [Example 189, 1,1,1,3,3,3-Hexafluoropropan-2-yl 2-(3-chloro-2-(4-methylpiperazin-1-yl)benzyl)-3,3-dimethyl-2,8-diazaspiro[4.5]decane-8-carboxylate], for which the “MAGL % Inh 5 mg/kg (mouse)” value in test [5] is given as “## (## is equal to or greater than 25% but less than 75%)”. For the same compound, the “FAAH % Inh 5 mg/kg (mouse)” value in test [6] was “# (# is <25%)”. The inhibition at 1 µM in test [2] was 25 to 75%; in test [3], less than 25%; in test [4], greater than 75%. Moreover, the IC50 in test [2] is 100 to 1000 nM; in test [3], greater than 1000 nM; in test [4], less than 100 nM. For the same compound, the “ABHD6 % Inh 5 mg/kg (mouse)” value in test [7] was “# (# is <25%)”.

In the case of `C#Cc1ccc(CN2CCCC23CCN(C(=O)OC(C(F)(F)F)C(F)(F)F)CC3)c(N2CCC(C(=O)O)CC2)c1` [Example 198, 1-{5-Ethynyl-2-[(8-{[(1,1,1,3,3,3-hexafluoropropan-2-yl)oxy]carbonyl}-1,8-diazaspiro[4.5]decan-1-yl)methyl]phenyl}piperidine-4-carboxylic acid], in test [1], the IC50 is less than 100 nM. Besides, the inhibition at 1 µM in test [2] was less than 25%; in test [3] it was less than 25%; in test [4], greater than 75%.

`O=C(O)C1CCN(c2cc(C(F)(F)F)ccc2CN2CCC3(CCN(C(=O)OC(C(F)(F)F)C(F)(F)F)CC3)C2)C1` (stereo not shown) [Example 201] yielded a half-inhibitory concentration (IC50) in test [1] of less than 100 nM. The inhibition at 1 µM in test [2] was no less than 75%; in test [3] it was less than 25%; in test [4] it was greater than 75%.
